The values that follow are results of earlier work, collected in patent US20090214511A1, “DIGESTIBLE COMPOSITIONS OF INULIN FOR MANAGING BLOOD GLUCOSE LEVELS” (priority 2008, published 2009).

On to `CN(C)C(=N)N=C(N)N` [metformin], for which, for the setting “Type 2 diabetes, initial choice of anti-diabetic drug, 5 years”, the “cumulative incidence of monotherapy failure at 5 years” value is on record as 21%. In the case of `CN(CCOc1ccc(CC2SC(=O)NC2=O)cc1)c1ccccn1` (centres unmarked) [rosiglitazone], under “randomized controlled trial, users vs non-users”, the “weight gain and edema versus non-users” value was “more weight gain and edema”.
